Test results published in a melting point compilation (Tetko et al.; mined from patent text by program, amines drawn as free bases though some values may be those of a salt).

Row | SMILES | melting point [°C]
1 | O=S(=O)(Nc1ccccc1OC1CCCCC1)C(F)(F)F | 83 to 85
2 | CCCCCCCCCCCCCCCCCC(=O)Oc1nc2c(N)ncnc2n1Cc1ccccc1 | 128 to 129
3 | COc1ccc(-c2c(C(=O)O)c3ccccc3n2C)cc1 | 229 to 230
4 | N#CC1c2ccccc2COc2ccccc21 (stereo not drawn) | 65 to 66.5
5 | CCOC(=O)C(=O)Nc1ccc(C(F)(F)F)cc1C | 120 to 121
6 | CCC(=O)Nc1c(C#N)cnn1-c1ccc(OC(F)(F)F)cc1Cl | 127
7 | C#CCN1C(=O)C(C)Oc2cc(F)c(N)cc21 (stereo not drawn) | 142 to 145
8 | Oc1ccc2c(c1)CCCC(c1ccccc1)=C2c1ccc(OCCCCCSCc2ccccc2)cc1 | 178 to 186
9 | O=c1[nH]c2cc(Cl)ccc2c(O)c1-c1cccc(I)c1 | > 350
10 | COC(=O)c1ccc(CC#N)cc1S(=O)(=O)NC(=O)Nc1nc(OC)cc(OC)n1 | 177 to 179
11 | Cc1nn(C)c2c1N=CN1CC(C)N=C21 (stereo not drawn) | 115 to 117
12 | CC(C)C(NC(=O)c1ccccc1)C(=O)O (racemic) | 125 to 128
13 | O=C(O)Cn1c2ccccc2c2sccc(=O)c21 | 275 to 278
14 | CCOC(=O)Nc1ccc(OC23CC4CC(CC(C4)C2)C3)cc1 | 116 to 118
15 | COc1ccc(C(O)Cc2nccnc2C)cc1 (stereo not drawn) | 89 to 91
16 | COc1cc(OC)c2c(=O)[nH]c(-c3cc(-c4ccc(S(C)=O)cc4)cs3)nc2c1 (stereo not drawn) | > 300
17 | COc1ccc(-c2c[nH]c(=O)nc2C)cc1 | 210
18 | CCC(=O)Nc1c(C(=O)c2cccc(C)c2)[nH]c2cc(Cl)ccc12 | 152 to 155
19 | CCc1cc(OC)c(OC)cc1Cc1cnc(N)nc1N | 206 to 207
20 | O=C1C(c2cccc(O)c2)CCCCN1Cc1ccccc1 (stereo not drawn) | 160 to 166
21 | O=C1C2CC3CC1CC(OCc1ccc(-c4nc5ccccc5o4)cc1)(C3)C2 | 159 to 160
22 | Cc1c[nH]c(C)c1-c1nc2ccc(C(=O)c3ccccc3)cc2[nH]1 | 207 to 214
23 | O=S(=O)(c1ccc(Br)cc1)N1CCC1 | 145
24 | CC(C)(C)[Si](C)(C)O[C@@H]1c2cc(Br)ccc2-c2ccc(Br)cc2[C@H]1O[Si](C)(C)C(C)(C)C (relative stereo) | 162 to 163
25 | COC(=O)c1ccccc1CS(=O)(=O)NC(=O)Cc1nc(OC)cc(OC)n1 | 98 to 101
26 | Cc1cc(NCc2ccccc2)n(C)n1 | 95 to 97

Row | SMILES | melting point [°C]
27 | CN(C)C1=NC(=O)C(Cc2cccc(-c3ccc(O)c(C4(C)CCCCC4)c3)c2)S1 (stereo not drawn) | 108 to 110
28 | COC(=O)Cn1c(=O)c(-c2c(Cl)cccc2Cl)cc2cnc(N)nc21 | 188 to 190
29 | CCCCc1cccc(=O)n1Cc1ccc(-c2ccccc2-c2nnn[nH]2)cc1 | 105
30 | COc1cc(-c2cnc3[nH]cc(C(=O)O)c3n2)cc(OC)c1OC | 238
31 | CC(=O)NC[C@H]1CN(c2ccc(N3CCC(C)(O)CC3)c(F)c2)C(=O)O1 | 180 to 182
32 | O=C(NN=Cc1ccc2cc(OC(=O)c3ccc([N+](=O)[O-])o3)ccc2c1)OCc1ccccc1 | 109 to 112
33 | O=C(NCC1Cc2ccc3c(c2O1)CCCC3)OCc1ccccc1 (stereo not drawn) | 88 to 90
34 | O=[N+]([O-])c1ccc(N(CCO)CCO)cc1 | 102 to 104
35 | CCOC(=O)Cc1c(C)nc2c3cccc(Cl)c3ccn12 | 137 to 138
36 | O=[N+]([O-])C=Cc1ccc(O)c(Br)c1 | 132 to 134
37 | CN1CCN2c3ccc(Cl)cc3C(c3ccco3)=[N+]([O-])CC2C1 (stereo not drawn) | 202 to 204
38 | O=C(Cc1ccccc1)N1CC2CCC(C1)O2 | 106
39 | OCCC1Cc2ccccc2CN1C(=S)Nc1cccnc1 (racemic) | 174
40 | Oc1cccc(-n2nnnc2S)c1 | 176 to 178
41 | COc1ccc2c(c1)SCCC2=O | 49 to 51
42 | CNC(=C[N+](=O)[O-])NCCSCc1nccc(NC(N)=NCC(F)(F)F)n1 | 154 to 157
43 | Cc1ccccc1-c1c(NC(=O)OC(C)(C)C)c(=O)oc2cc3c(cc12)CCC3 | 154 to 155
44 | FC(F)(F)c1ccc(-c2ncc(Br)cn2)cc1 | 167
45 | CCCCOC(=O)c1cccc(-c2c3nn(-c4ccc(Cl)cc4)c(=O)c-3c[nH]c2C)c1 | 185 to 190
46 | Cn1nnn(-c2c(Cl)ccc(C(=O)C3C(=O)CCCC3=O)c2Cl)c1=O | 138 to 140
47 | O=C1c2ccccc2C(=O)N1CCCSc1ccccc1 | 83 to 85
48 | CCOC(=O)c1c(C)oc(=O)c(-c2c(C)cc(C)cc2C)c1OC(C)=O | 107 to 109
49 | O=CNC1=NN(c2ccccc2)C(c2ccc(Cl)cc2)C1 (stereo not drawn) | 135 to 136
50 | C#CC(CC)(CC)NC(N)=O | 108
51 | O=C(NC(=O)c1c(F)cccc1F)Nc1ccc(-c2ccc(Cl)cc2)c(Cl)n1 | 237 to 241
52 | CN(C)CCCCCCOc1ccc(CC(=O)c2ccccc2)cc1 | 53 to 54

Row | SMILES | melting point [°C]
53 | Nc1sc2c(c1C(=O)c1ccccc1)CCN(CCc1ccc([N+](=O)[O-])cc1)C2 | 89 to 91
54 | CCC(Cc1ccccc1)(C(=O)c1ccc(N(C)C)cc1)N(C)C (stereo not drawn) | 77 to 80
55 | Cn1cc(OS(C)(=O)=O)c(=O)c2ccccc21 | 208 to 209
56 | CCc1scc(C(=O)OC)c1NC(C)=O | 85 to 86
57 | CCOC(=O)c1ncn2c1CNc1ccccc1-2 | 248 to 250
58 | CCC(CO)(CO)NC(=O)Nc1ccccc1CCc1cc(C(C)(C)C)c(O)c(C(C)(C)C)c1 | 145 to 146
59 | Cc1sc(-c2ccccc2)nc1COc1cc(COc2ncccc2C=O)on1 | 123 to 124
60 | COc1cc(COc2nn(-c3ccccc3)cc2C=O)ccc1OCc1csc(N2CCCCC2)n1 | 123 to 124
61 | COc1cc2c(cc1O)C(=O)CCC2 | 147 to 148
62 | CC(C)c1nccc2c(CO)cccc12 | 120 to 121
63 | O=C(O)CCC(=NO)c1ccc(-c2ccc(Cl)c(Cl)c2)cc1 | 166
64 | CCCCCCC(C(=O)O)c1ccc(NC(=O)C2(O)c3ccccc3-c3ccccc32)cc1 (stereo not drawn) | 183 to 185
65 | COCC(F)(F)c1nc2nc(C)c(F)cc2cc1C(=O)C1C(=O)C2CCC(C2)C1=O (stereo not drawn) | 177 to 180
66 | CCOC(=O)c1sc(N2CCN(Cc3ccc(Cl)cc3)C2=O)nc1C | 117 to 119
67 | O=C(O)c1ccnc(NC(=O)C(CS)Cc2ccccc2)c1 (stereo not drawn) | 234 to 236
68 | Cc1cc(-c2c(F)cc3c(=O)c(C(=O)O)cn4c3c2SC[C@@H]4C)cc(C)n1 | 328 to 331
69 | Cn1c(C(F)(F)F)cc(=O)n(-c2ccc(Cl)c(C=C(Cl)C(=O)O)c2)c1=O | 216 to 217
70 | COc1cccc(OC)c1C(=O)P(=O)(CC(C)C)C(=O)c1c(C)cc(C)cc1C (stereo not drawn) | 105 to 106
71 | O=C(NCc1ccccc1)c1ccnc(NC(=O)c2ccc(C(F)(F)F)cc2)c1 | 181 to 183
72 | Cn1c(=O)n(Cc2ccccc2)c2cc(Cn3ccnc3)ccc21 | 129
73 | Cc1cccc(Nc2nc3c(s2)CCc2[nH]ncc2-3)n1 | 280
74 | CCOC(=O)c1cc(C)c(Cl)nc1Nc1ccccc1F | 122 to 126
75 | Cc1cn(N=Cc2cc(C(C)(C)C)c(O)c(C(C)(C)C)c2)cn1 | 150 to 151
76 | Clc1ccc2c(c1)C(c1ccccc1Cl)=NCc1n[nH]cc1-2 | 142 to 144
77 | COC(=O)c1ccc(=O)n(-c2ccccc2)c1 | 100 to 105
78 | CCCc1c(OCc2cccc(C(=O)NC(C)CCCc3cccnc3)c2)ccc(C(C)=O)c1O (stereo not drawn) | 115 to 118

Row | SMILES | melting point [°C]
79 | COC(=O)c1ccccc1C1NC(=S)C(C)(C(C)C)N1 (stereo not drawn) | 115 to 121
80 | CC(C)(C)OC(=O)N1CCN(C(=O)Nc2ccccc2)CC1 | 168 to 169
81 | CC(C)(C)c1cc(-c2nn(Cc3ccc([N+](=O)[O-])cc3)c3ncccc23)cc(C(C)(C)C)c1O | 143 to 145
82 | NC(=O)c1c(C(F)(F)F)oc2cc(O)ccc2c1=O | > 310
83 | CC(=O)C1=C(O)C(=C(C)Nc2ccc(F)cc2)C(=O)OC1=O | 199 to 201
84 | CCOC(=O)c1[nH]c(C)c(C(C)CC)c1C (stereo not drawn) | 102 to 104
85 | CC(C)C[C@H](N[C@H](CC(C)C)C(=O)OCc1ccccc1)C(=O)N[C@@H](Cc1ccccc1)C(N)=O | 145 to 146
86 | COc1cccc2c1C13CCN(C(=O)C4CC4)C(C2)C1CCC(=O)C3 (stereo not drawn) | 144 to 147
87 | N#Cc1cccc(C(F)(F)F)c1O | 134
88 | CCOc1ccc(-c2nc(OC)ccc2N2CCN(c3ccc(OC)cc3)CC2)cc1 | 125 to 128
89 | O=C(NCCCCCCOC(=O)Oc1ccc([N+](=O)[O-])cc1)OC1CCN(C(=O)OCc2ccccc2)CC1 | 78 to 80
90 | COc1cc2c(-c3ccnc(NN)c3)c(CO)c(CO)cc2cc1OC(C)C | 128 to 131
91 | Nc1ccc(S(=O)(=O)c2cc(Cl)nc(N3CCCC3)c2)cc1 | 225 to 226
92 | CC12CCC3c4ccc(O)cc4C(=O)C(Sc4ccc(O)cc4)C3C1CCC2O (stereo not drawn) | 120 to 124
93 | OCCON=Cc1ccc2ccccc2c1 | 87
94 | CC(Oc1ncn(-c2ccccc2)n1)C(=O)O (stereo not drawn) | 140 to 142
95 | Clc1ccc2scc(Br)c2c1 | 85 to 86
96 | COC(=O)c1coc2ccc(C)cc12 | 40 to 41
97 | COc1cc2c(cc1OC)CN(CCc1ccc(NC(=O)c3cccc4c(=O)c5cccc(OC)c5[nH]c34)c(C)c1)CC2 | 200 to 201
98 | COc1ccc(-c2cc3ncc(C#N)c(Nc4ccc(Sc5nccn5C)c(Cl)c4)c3cc2OC)cc1 | 227 to 229
99 | CCOC(=O)N1CC2CCN(c3c(F)cc4c(=O)c(C(=O)O)cn(C5CC5)c4c3F)C2C1 (stereo not drawn) | 192 to 193
100 | Cn1c(Oc2ccc(-n3c4ncccc4n4ccnc34)cc2)nc2ccccc21 | 232 to 234
101 | CON=C1CCC1N1CCC(Cc2ccc(Cl)cc2)CC1 (stereo not drawn) | 127 to 128
102 | COc1cc(C(C)C)c2c(c1)S(=O)(=O)N(COc1cc(C(F)(F)F)nn1-c1ccncc1)C2=O | 161 to 162
103 | COc1ccc(NC(=O)c2ccc(F)c(F)c2)cc1NS(=O)(=O)CCl | 191 to 193
